Data set [1] has as its system 293T. As to the kind of experiment: 293T relative cell viability. Particulars: day 3, 10 μM.
The subject of data set [2] is HepG2 cells. As to the kind of experiment: HepG2 cell uptake assay. The data set is classed as in vitro ADME. Particulars: 10 μM, 2 hours. As for the experimental part: The HepG2 cells maintained in DMEM (containing 1 g/L glucose, 10% fetal bovine serum and 1% penicillin/streptomycin) were seeded in a 12-well plate (a final density of 5×10^5/well) for cell uptake assay and 96-well plate for cytotoxicity assay (a final density of 5×10^4/well). The plate was incubated at 37° C. for 24 h.
The cells in 12-well plate were treated with CDD-1713 or CDD-1976 (final concentration: 10 μM). The plate was incubated at 37° C. for another 2 hr. The medium in the plate was decanted and the cells were rinsed with 1 mL of 1×DPBS for three times. 0.5 mL of 0.25% Trypsin was added into each well and incubated for 3.5 min (at 37° C.). 1 mL of complete medium was added into each well to quench the reaction. After spinning at 350×g for 5 min, the cell pellet was reconstituted in MeOH/H2O (v/v 1/1) and CDD-1713 or CDD-1976 was extracted from 100 μL of the resulting mixture with 100 μL of ice-cold methanol. The mixtures were centrifuged at rcf 15,000 for 15 min. Three μL of the supernatant was analyzed by UHPLC-Q Exactive Orbitrap MS (Thermo Fisher Scientific, USA) equipped with 50 mm×4.6 mm column (XDB C-18, Agilent Technologies, USA). The column temperature was set at 40° C. Ultra-pure nitrogen was applied as the sheath (45 arbitrary unit), auxiliary (10 arbitrary unit), sweep (1.0 arbitrary unit) and the collision gas. […]

A short description of data set [3]: Plasma stability assay, mouse plasma. The data set is classed as in vitro ADME. Particulars: 10 μM, 37° C., after 2 h incubation. On the procedure:
(§1) Compound CDD-1713 and CDD-1976 were incubated in human and mouse plasma respectively at a concentration of 10 μM in duplicate (n=2) at 37° C. At time-points of 0, 30, 60 and 120 min, 15 μL of sample were taken out and the reactions terminated by adding 75 μL of ice-cold methanol. The reaction mixtures were then vortexed for 30 sec and centrifuged at rcf 15,000 for 15 min. Following centrifugation, 3 μL of the supernatant was analyzed using UHPLC-Q Exactive Orbitrap MS. The percentage of test compound remaining at the individual time points relative to the 0 min sample was then determined.

A short description of data set [4]: Metabolic stability in human liver microsomes. Format: in vitro ADME. Summed up: (§2)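 Mouse or human liver microsomal incubations sampled in duplicate at 0, 30 and 60 min, quenched with equal volume ice-cold methanol. Supernatant analysed by UHPLC-Orbitrap MS, C18 column at 40° C, positive ESI, m/z 80–1,200.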
(Liver microsomes are a subcellular fraction often used to study metabolism.)

The nature of data set [5]: Metabolic stability in mouse liver microsomes. The data set is classed as in vitro ADME. Summed up: as §2
Data set [6] is described as follows: Plasma stability assay, human plasma. The data set is classed as in vitro ADME. Particulars: 10 μM, 37° C., after 2 h incubation. As for the experimental part: as §1
The test system of data set [7] is SARS-COV-2 (USA_WA1/2020 isolate) in VERO E6 cells. As to the kind of experiment: Real-Time Cell Analysis (RTCA) assay of SARS-COV-2 replication. The data set is classed as cell-based. Particulars: VERO E6 cells, 75 h.
The target of data set [8] is T1, renin (Homo sapiens, UniProt P00797).
T1 construct: purchased BPS Bioscience 80211
T1 sequence (P00797 67-406): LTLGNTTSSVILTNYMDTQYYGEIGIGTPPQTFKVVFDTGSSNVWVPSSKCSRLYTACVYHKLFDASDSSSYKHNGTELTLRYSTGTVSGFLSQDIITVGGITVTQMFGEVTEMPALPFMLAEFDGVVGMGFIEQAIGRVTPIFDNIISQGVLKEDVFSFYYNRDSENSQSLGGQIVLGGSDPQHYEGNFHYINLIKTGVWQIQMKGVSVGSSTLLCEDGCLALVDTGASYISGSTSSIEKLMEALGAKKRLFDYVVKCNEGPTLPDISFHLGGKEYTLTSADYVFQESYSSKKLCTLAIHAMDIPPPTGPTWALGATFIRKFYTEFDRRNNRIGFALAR
The experiment in a line: Renin assay. The data set is classed as biochemical. Particulars: read-out: estimated Kiapp, renin. On the procedure:
A kit from BPS Bioscience (#80211) was used with adjustments to the manufacturer's protocol as follows: The reaction was run at RT in black 96 half-area plates in a total reaction volume of 50 uL containing 0.01% Tween-20. Instead of measuring endpoints at 30 min the increase in fluorescence (Ex 490 nm, Em 520 nm) per second (RFU/s) was obtained from linear progress curves over 10 min. Fractional activities were calculated from reactions with no inhibitors. Aliskiren was used as a positive control.

The target of data set [9] is T2, Human Cathepsin B (Homo sapiens, UniProt P07858).
T2 construct: purchased BPS Bioscience 79590
As to the kind of experiment: Cathepsin B assay. Format: biochemical. As for the experimental part:
A kit from BPS Bioscience (#79590) was used with adjustments to the manufacturer's protocol as follows: The activated enzyme was diluted 250-fold just before use, and the reaction was run at RT in black 96 half-area plates in a total reaction volume of 50 uL containing 0.01% Tween-20. Instead of measuring endpoints at 60 min the increase in fluorescence (Ex 360 nm, Em 460 nm) per second (RFU/s) was obtained from linear progress curves over 10 min. Fractional activities were calculated from reactions with no inhibitors. E-64 was used as a positive control.

For data set [10], the system named is HepG2 cells. As to the kind of experiment: HepG2 cytotoxicity assay (XTT). In general terms: Formazan colour is commonly taken as a measure of viable cells.

The microsomal CLint is the capacity of the preparation to metabolise the compound, expressed as a volume cleared per time. Low values mean slow turnover, high ones rapid turnover. By IC50 is commonly meant the midpoint of a concentration-inhibition curve. As to `COc1cc(-c2cccc3[nH]ncc23)cc(C=O)c1OCC(=O)N(C)C` [CDD-1713, 2-(2-formyl-4-(1H-indazol-4-yl)-6-methoxyphenoxy)-N,N-dimethylacetamide], the “293T day 3 relative cell viability (% inhibition at 10 μM)” value in data set [1] was “None”. Also, in data set [2], the “cell permeability in HepG2 uptake assay (in words)” value is “moderate cell permeability”. Besides, the “compound remaining in mouse plasma” value in data set [3] was determined as 80%. Besides, the “HLM t1/2” value in [4] (Table 4) is 15.3 min. The intrinsic metabolic clearance (microsomal CLint) at 2 μM was determined as 90.6 µL/min/mg in data set [4] (human, liver microsomes) and 147 µL/min/mg in data set [5] (mouse, liver microsomes). In [4] (human, microsomes), the “metabolic stability in human liver microsomes (in words)” value is “metabolically labile”. Also, the “MLM t1/2” value in data set [5] (Table 4) is 8.4 min. Also, in data set [5] (mouse, microsomes), the “metabolic stability in mouse liver microsomes (in words)” value is recorded as “metabolically labile”. Further, the “compound remaining in human plasma” value in data set [6] stood at 80%. The IC50 is 5.19 µM in data set [7] (Severe acute respiratory syndrome coronavirus 2, Vero C1008, read-out: IC50, inhibition of SARS-COV-2 induced cell death (RTCA)) and greater than 100 µM in data set [10] (Homo sapiens, HepG2, 24 h, read-out: HepG2 cell viability IC50). For the same molecule, the “prevention of SARS-COV-2 induced cell death (in words)” value in data set [7] was “reduced cell death in a dose-dependent manner”. The Ki in data set [8] is 53 µM. Further, the “Human Cathepsin B, Fractional Remaining Activity” value in data set [9] was found to be 0.97. Further, the “cytotoxicity in HepG2 cells (in words)” value in data set [10] (100 μM) is recorded as “no obvious cytotoxicity”.

The values above are taken from patent US20250276955A1, “CORONAVIRUS MAIN PROTEASE INHIBITORS AND METHODS USING SAME” (Baylor College of Medicine, priority 2021, published 2025).
